In patent US20200345725A1, “Methods and Compositions for Treating Cancer” (Omeros Corporation, priority 2019, published 2020):

Experiments:
Format in all cases: cell-based
GPR174 [1] = assay: IL-2 production from purified GPR174 WT and GPR174-KO mouse T cells with PS liposomes (FIG. 67)
GPR174 [2] = molecular target: T1, GPR174 (Mus musculus, UniProt Q3U507); assay: as above; details: GPR174 WT mouse T cells, in presence of PS liposomes, FIG. 67
T1 construct: endogenous in cells; host or cells: purified mouse T cells from WT (and GPR174-KO) mice
T1 sequence (Q3U507 whole entry): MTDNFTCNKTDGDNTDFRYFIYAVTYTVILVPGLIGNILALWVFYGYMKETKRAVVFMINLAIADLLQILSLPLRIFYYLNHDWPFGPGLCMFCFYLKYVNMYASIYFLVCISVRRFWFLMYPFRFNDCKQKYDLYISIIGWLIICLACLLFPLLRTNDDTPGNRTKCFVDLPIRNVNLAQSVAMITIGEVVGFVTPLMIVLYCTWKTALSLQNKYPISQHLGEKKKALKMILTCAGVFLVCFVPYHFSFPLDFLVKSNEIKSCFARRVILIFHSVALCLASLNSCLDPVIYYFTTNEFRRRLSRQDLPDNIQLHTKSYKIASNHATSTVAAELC

purified human T cells = assay: Cytokines of purified human T cells activated with K562 cells, with or without PS liposomes, tumor exosomes, GPR174 inhibitor; details: for IFN-γ FC (fold change), Compound 10 vs Vehicle / IL-2 FC (fold change), Compound 10 vs Vehicle / TNF FC (fold change), Compound 10 vs Vehicle: stimulated human T cells, compound 10, 0.5 μM
Experimental: Purified human T cells (Astarte Biologies, Inc) were activated in the presence of K562 cells (as artificial antigen presenting cells) presenting anti-CD3 and CD80.Fc via Fc-receptor binding, in 96-well U-bottom plates containing X-vivo-15 media in the following conditions:
Anti-CD3 (clone UCHT1, 0.5 μg/mL)
CD80.Fc fusion protein (R&D Systems, 2 μg/mL)
Exosomes from human breast cancer tumor cell line MDA-MB-231 (12 μg/mL) (EXOP-105A-1 from System Biosciences, LLC)
GPR174 inhibitor (compound 10, 0.5 μM or 3 μM)
Cells were cultured for 24 hours and supernatants were evaluated for cytokine concentrations (Legendplex, Biolegend).

mouse splenocytes = assay: IL-2 in stimulated splenocyte cultures from WT or GPR174 KO mice; details: 48 hours; 10 μM; vs vehicle
Experimental: GPR174 knockout (KO) mice (referred to also as “FKSG79”) were generated as described in Gragerov A. et al., PNAS vol 104(36): 14406-14411, 2007. Splenocyte cultures were generated from four GPR174 KO mice and four wild-type (WT) mice. Single-cell suspension of individual mouse spleens were pelleted by centrifugation, resuspended in RBC lysis buffer to remove erythrocytes, spun down again and resuspended in T cell medium (RPMI-1640, 10% FBS, 6 mM L-Glutamine, 12.5 mM HEPES, 50 μM 2-mercaptoethanol, Pen/Strep). Thus, prepared splenocytes were plated into 96-well plates at a density of 3×10^6 cells/mL, 250 μL/well and stimulated with 100 ng/mL of anti-CD3 antibodies and 100 ng/mL of anti-CD28. Cells were treated with either vehicle (0.1% DMSO) or GPR174 inhibitory Compound 10 (10 μM). 48 hours later, cell supernatants were analyzed for cytokine levels using LEGENDplex mouse Th1 cytokine detection kit (BioLegend). Four GPR174 KO and four WT spleens were analyzed, each in triplicate.

WT GPR174 = molecular target: T2, WT GPR174 (Homo sapiens, UniProt Q9BXC1); assay: Inhibition of PS-induced GPR174 Gs signaling (GloSensor), HEK293 stably transfected with WT GPR174
T2 construct: expressed in transfected cells; host or cells: HEK293
T2 sequence (Q9BXC1 whole entry): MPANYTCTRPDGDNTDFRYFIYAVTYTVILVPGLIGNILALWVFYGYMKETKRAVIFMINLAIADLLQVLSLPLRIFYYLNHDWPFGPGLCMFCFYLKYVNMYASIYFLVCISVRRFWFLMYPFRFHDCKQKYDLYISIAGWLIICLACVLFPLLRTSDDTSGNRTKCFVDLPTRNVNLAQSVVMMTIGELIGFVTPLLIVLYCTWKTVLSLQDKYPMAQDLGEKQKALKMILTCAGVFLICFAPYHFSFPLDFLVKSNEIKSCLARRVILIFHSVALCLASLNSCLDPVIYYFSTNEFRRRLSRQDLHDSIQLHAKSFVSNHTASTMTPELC
Experimental: The signaling experiment was conducted as described for FIG. 45, but instead of transient transfection a pool of HEK293 cells stably transfected with either WT GPR174 (for compound 10, as shown in FIG. 47A) or GPR174-v38 for the rest of the tested compounds, as shown in FIGS. 47B-47F)) and GloSensor cAMP biosensor was used. A dilution series of each of the GPR174 inhibitory compounds 10 (Group I), 6 (Group I), 11 (Group I), 20 (Group II), 23 (Group IV), and 30 (Group IV) were prepared in DMSO. After the plates were pre-read in a luminometer, 1 μL of the compound dilution was added per well (with control wells receiving 1 μL of DMSO) followed by addition of PS liposomes to the final concentration of 1 μM. Plates were read in a luminometer after 15 minutes of incubation. The ratio of luminescence after PS addition to the pre-read luminescence value was used as a measure of receptor-mediated signaling.

human T cells = assay: PD-L1, TIGIT and AREG expression on human T cells in PBMC; details: 1.25 or 5 μM; one day post-stimulation
Experimental: PBMC cells from a single donor mixed with additional irradiated antigen-presenting cells (APC) and anti-CD3 antibodies (UCHT1) were incubated in the presence of various concentrations of GPR174 inhibitory compound 10 (1.25 to 5 μM) or equivalent concentrations of vehicle (DMSO). The cells were analyzed by flow cytometry for expression of CD4, CD8, PD-L1, TIGIT and AREG.

ADBR2 = molecular target: T3, ADBR2 (Homo sapiens, UniProt P07550); assay: CRE-Luc reporter assay with control receptor ADBR2
T3 construct: host or cells: HEK293 or CHO cell lines (ATCC)
T3 sequence (P07550 whole entry): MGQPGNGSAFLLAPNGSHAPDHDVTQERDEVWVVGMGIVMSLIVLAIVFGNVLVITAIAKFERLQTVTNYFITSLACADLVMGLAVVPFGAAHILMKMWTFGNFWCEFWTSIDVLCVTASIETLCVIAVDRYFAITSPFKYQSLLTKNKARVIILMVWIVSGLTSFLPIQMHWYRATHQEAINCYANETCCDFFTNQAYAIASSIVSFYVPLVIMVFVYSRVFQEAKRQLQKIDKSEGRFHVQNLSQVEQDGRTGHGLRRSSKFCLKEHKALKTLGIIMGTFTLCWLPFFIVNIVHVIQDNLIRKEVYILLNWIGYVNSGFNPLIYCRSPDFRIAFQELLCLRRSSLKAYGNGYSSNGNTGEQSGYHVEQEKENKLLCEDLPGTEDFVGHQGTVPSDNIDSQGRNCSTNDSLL

[3] = in the presence of Exosomes (human breast cancer tumor-derived)
[4] = in the presence of PS Liposomes

Structure (SMILES): CC1CCN(c2cc(N3CCN(S(=O)(=O)c4ccccc4)CC3)c([N+](=O)[O-])cc2F)CC1 [compound 10]
- effect on IL-2 in presence of PS liposomes, fold change (GPR174 [1]; GPR174-KO mouse T cells, FIG. 67): 0.9 fold
- effect on T cell response in the absence of PS or GPR174 (GPR174 [1]; purified human and mouse T cells): negligible effect
- reversal of PS liposome-mediated suppression of IL-2, fold change (GPR174 [2]): 3.5 fold
- IL-2 production, fold change by compound 10 in the absence of PS liposomes (FIG. 65) (purified human T cells; compound 10 3 μM): 1.3 fold
- IL-2 production, fold change by compound 10 in the presence of PS liposomes (FIG. 65) (purified human T cells; compound 10 3 μM, PS liposomes 1 μM): 2.4 fold
- IFN-γ FC (fold change), Compound 10 vs Vehicle (purified human T cells; [3]): 1.4
- IL-2 FC (fold change), Compound 10 vs Vehicle (purified human T cells; [3]): 1.7
- TNF FC (fold change), Compound 10 vs Vehicle (purified human T cells; [3]): 1.7
- IFN-γ FC (fold change), Compound 10 vs Vehicle (purified human T cells; in the presence of Media): 1.1
- IL-2 FC (fold change), Compound 10 vs Vehicle (purified human T cells; in the presence of Media): 1.2
- TNF FC (fold change), Compound 10 vs Vehicle (purified human T cells; in the presence of Media): 1.4
- IFN-γ FC (fold change), Compound 10 vs Vehicle (purified human T cells; [4]): 1.3
- IL-2 FC (fold change), Compound 10 vs Vehicle (purified human T cells; [4]): 1.4
- TNF FC (fold change), Compound 10 vs Vehicle (purified human T cells; [4]): 1.7
- IL-2 in culture supernatants, GPR174 KO splenocytes (mouse splenocytes): no significant difference
- IL-2 in culture supernatants, WT splenocytes (mouse splenocytes): increased
- PS-mediated GPR174 Gs signaling (FIG. 47A) (WT GPR174; PS liposomes 1 μM): inhibited
- IC50 (WT GPR174; PS liposomes 1 μM, WT GPR174, read-out: apparent IC50, inhibition of PS-induced GPR174 Gs signaling): 0.02 to 0.04 µM
- inhibition of the PS signaling through the GPR174 receptor (WT GPR174; at concentrations of 1-2 μM): almost complete inhibition
- AREG expression in CD4+ T cells (human T cells): reduced
- PD-L1 expression in CD4+ T cells (human T cells): reduced
- TIGIT expression in CD8+ T cells (human T cells): reduced
- Gs pathway in the presence of ADBR2 (CRE-Luc reporter) (ADBR2): did not inhibit

Structure (SMILES): O=C(c1ccccc1)N1CCN(c2cc(N3CCCCC3)c(F)cc2[N+](=O)[O-])CC1 [compound 6]
- Gs pathway in the presence of ADBR2 (CRE-Luc reporter) (ADBR2): did not inhibit
